The values below come from paper PMC10294832, “Investigation of Naphthyl–Polyamine Conjugates as Antimicrobials and Antibiotic Enhancers” (Antibiotics, 2023).

Molecules are shown by their SMILES. pIC50: −log10 of the molar value. Values joined by “and” are separate entries in the source; they are usually repeats but may differ in a detail not shown here. Equal values may be shown once. A value given as a limit tells only on which side of the number the result lay.

Data set [1] relates to S. aureus (ATCC 25,923 or ATCC 29213). The data set can be described thus: Antimicrobial MIC, S. aureus. The following applies: Staphylococcus aureus, mean (n = 3). The data set is classed as cell-based, Staphylococcus aureus. The method, boiled down: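 MICs for the […] bacteria came from an in-house susceptibility test run to an earlier published protocol. The yeasts were screened externally at CO-ADD, University of Queensland, under that facility's standard procedures.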

The test system of data set [2] is MRSA (ATCC 43300). The data set can be described thus: Antimicrobial MIC, MRSA. The following applies: Staphylococcus aureus, MRSA (ATCC 43300); mean (n = 2); read-out: MIC MRSA. It counts as cell-based, methicillin-resistant Staphylococcus aureus.
Data set [3] deals with P. aeruginosa (PAO1 or ATCC 27853). Kind of data set: Antimicrobial MIC, P. aeruginosa. The data set is classed as cell-based. The following applies: Pseudomonas aeruginosa; P. aeruginosa (PAO1 or ATCC 27853); mean (n = 3); read-out: MIC P. a. The method, boiled down: (§1)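 E. coli and P. aeruginosa susceptibility was determined in-house following previously reported protocols. C. albicans and C. neoformans were tested by the Community for Open Antimicrobial Drug Discovery (University of Queensland) using its standard protocols. Values are MICs.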

For data set [4], the system named is E. coli (ATCC 25922). The data set can be described thus: Antimicrobial MIC, E. coli. The data set is classed as cell-based, Escherichia coli. The following applies: Escherichia coli, ATCC25922, E. coli (ATCC 25922); mean (n = 2). The method, boiled down:
as §1

In data set [5] the test system is K. pneumoniae (ATCC 700603). Kind of data set: Antimicrobial MIC, K. pneumoniae. It counts as cell-based. The following applies: Klebsiella pneumoniae, ATCC700603, mean (n = 2).
The subject of data set [6] is A. baumannii (ATCC 19606). Kind of data set: Antimicrobial MIC, A. baumannii. The data set is classed as cell-based, Acinetobacter baumannii. Particulars: Acinetobacter baumannii, ATCC19606, A. baumannii (ATCC 19606); mean (n = 2).
For data set [7], the system named is C. albicans (ATCC 90028). Kind of data set: Antifungal MIC, C. albicans. It counts as cell-based. Particulars: Candida albicans, ATCC90028, mean (n = 2). The method, boiled down:
as §1

Data set [8] concerns C. neoformans (ATCC 208821). The data set can be described thus: Antifungal MIC, C. neoformans. Particulars: Cryptococcus neoformans, ATCC208821, C. neoformans (ATCC 208821); mean (n = 2). The data set is classed as cell-based, Cryptococcus neoformans. The method, boiled down:
as §1

The nature of data set [9]: Cytotoxicity assay. It counts as cell-based, human. Particulars: human, HEK293 human embryonic kidney cells, concentration at 50% cytotoxicity on HEK293 cells; mean (n = 2). The method, then: Cytotoxicity assays were conducted using the protocols previously reported.
For data set [10], the system named is human red blood cells. Kind of data set: Hemolytic assay. It counts as cell-based. Particulars: concentration at 10% hemolytic activity on human red blood cells; mean (n = 2). The procedure:
Hemolysis assays were conducted using the protocols previously reported.

Data set [11] deals with P. aeruginosa (ATCC 27853). Kind of data set: Enhancement of doxycycline activity. The data set is classed as cell-based, Pseudomonas aeruginosa. The following applies: for Dox/P.a: concentration required to restore doxycycline activity (combination MIC): doxycycline fixed at 4.5 µM (2 µg/mL), P. aeruginosa (ATCC 27853); for Dox/P.a fold change: ratio between intrinsic MIC of test compound and combination MIC, doxycycline 4.5 µM, P. aeruginosa.

Data set [12] concerns E. coli (ATCC 25922). The data set can be described thus: Enhancement of erythromycin activity. The data set is classed as cell-based, Escherichia coli. The following applies: for Eryth/E.c: concentration required to restore erythromycin activity (combination MIC): erythromycin fixed at 10.9 µM (8 µg/mL), E. coli (ATCC 25922); for Eryth/E.c fold change: ratio between intrinsic MIC of test compound and combination MIC, erythromycin 10.9 µM, E. coli. The procedure:
Restoring enhancer concentrations were determined using previously reported protocols.

Regarding `O=C(O)CCC(=O)Nc1cccc2ccccc12` [Compound 9, 4-(Naphthalen-1-ylamino)-4-oxobutanoic Acid], the melting point (usually the temperature, or range, at which the solid turns liquid) was in the range of 165 to 167 °C.

In turn, `O=C(NCCCNCCCCCCNCCCNC(=O)c1cccc2ccccc12)c1cccc2ccccc12.O=C(O)C(F)(F)F.O=C(O)C(F)(F)F` [Compound 17b, N^1,N^6-Bis(3-(1-naphthamido)propyl)hexane-1,6-diaminium 2,2,2-trifluoroacetate] gave a melting point of 225 to 227 °C. Also, the minimal inhibitory concentration (MIC) (commonly the lowest concentration that inhibits growth of the organism) in [1] came to 200 µM. Further, in data set [2], the MIC is above 41.7 µM. For the same compound, in [3], the MIC worked out at 200 µM. Besides, in [4], the minimum inhibitory concentration (MIC) was 200 µM. For the same compound, the MIC in [5] was above 41.7 µM. In data set [6], the minimal inhibitory concentration (MIC) is above 41.7 µM. The compound also showed an MIC in data set [7] above 41.7 µM. In data set [8], this compound registered an MIC above 41.7 µM. Moreover, the pIC50 (in general, the IC50 on a negative log10 scale, so that one unit is a factor of ten) in data set [9] was below 4.38. The “Hemolysis HC10” value in data set [10] is given as above 41.7 µM. Further, in [11], the “Dox/P.a: concentration required to restore doxycycline activity (combination MIC)” value (“Dox/P.a: concentration required” for short) was 12.5 µM and the Dox/P.a fold change is 16 fold. In [12], the “Eryth/E.c: concentration required to restore erythromycin activity (combination MIC)” value (“Eryth/E.c: concentration required” below) turned out to be 100 µM and the Eryth/E.c fold change is listed as 2 fold.

In the case of `O=C(O)CCC(=O)Nc1ccc(-c2ccccc2)cc1` [Compound 12, 4-([1,1’-Biphenyl]-4-ylamino)-4-oxobutanoic Acid], the melting point is above 230 °C.

For the compound `O=C(CCC(=O)Nc1ccc(-c2ccccc2)cc1)NCCCNCCCCCCCCCCNCCCNC(=O)CCC(=O)Nc1ccc(-c2ccccc2)cc1.O=C(O)C(F)(F)F.O=C(O)C(F)(F)F` [Compound 21e, N^1,N^10-Bis(3-(4-([1,1’-biphenyl]-4-ylamino)-4-oxobutanamido)propyl)decane-1,10-diaminium 2,2,2-trifluoroacetate], the melting point fell in the range of 184 to 186 °C. In [1], this compound showed an MIC of 300 µM. In addition, the MIC in data set [2] was 0.246 µM. For the same compound, the MIC in data set [3] was 300 µM. The MIC in data set [4] was 300 µM. The compound also showed an MIC in [5] above 31.5 µM. This compound showed an MIC in data set [6] above 31.5 µM. The compound also yielded an MIC in data set [7] of 31.5 µM. Further, the MIC in [8] was 15.7 µM. The compound also had a pIC50 in data set [9] below 4.50. For the same compound, the “Hemolysis HC10” value in data set [10] is 6.3 µM and 6.32 µM. In [11], the “Dox/P.a: concentration required” value is recorded as 300 µM and the Dox/P.a fold change was 1 fold. Besides, in data set [12], the “Eryth/E.c: concentration required” value is given as 300 µM and the Eryth/E.c fold change is recorded as 1 fold.

Compound `O=C(CCC(=O)Nc1ccc(-c2ccccc2)cc1)NCCCNCCCCCCNCCCNC(=O)CCC(=O)Nc1ccc(-c2ccccc2)cc1.O=C(O)C(F)(F)F.O=C(O)C(F)(F)F` [Compound 21b, N^1,N^6-Bis(3-(4-([1,1’-biphenyl]-4-ylamino)-4-oxobutanamido)propyl)hexane-1,6-diaminium 2,2,2-trifluoroacetate] yielded a melting point of 200 to 202 °C. In addition, the MIC in data set [1] was determined as 300 µM. For the same compound, the minimum inhibitory concentration (MIC) in [2] is 2.08 µM. Moreover, in [3], the minimal inhibitory concentration (MIC) worked out at 300 µM. Moreover, the MIC in data set [4] is 300 µM. The compound also returned an MIC in [5] above 33.3 µM. The minimal inhibitory concentration (MIC) in data set [6] was above 33.3 µM. Further, the MIC in [7] was above 33.3 µM. Also, the MIC in data set [8] was above 33.3 µM. In data set [9], the pIC50 is below 4.48. The “Hemolysis HC10” value in data set [10] is above 33.3 µM. Further, in [11], the “Dox/P.a: concentration required” value stood at 300 µM and the Dox/P.a fold change was found to be 1 fold. Also, in data set [12], the “Eryth/E.c: concentration required” value worked out at 300 µM and the Eryth/E.c fold change is 1 fold.

`O=C(CCC(=O)Nc1ccc(-c2ccccc2)cc1)NCCCNCCCCCCCCNCCCNC(=O)CCC(=O)Nc1ccc(-c2ccccc2)cc1.O=C(O)C(F)(F)F.O=C(O)C(F)(F)F` [Compound 21d, N^1,N^8-Bis(3-(4-([1,1’-biphenyl]-4-ylamino)-4-oxobutanamido)propyl)octane-1,8-diaminium 2,2,2-trifluoroacetate] displayed a melting point of 182 to 184 °C. Also, the MIC in data set [1] worked out at 300 µM. Besides, the MIC in data set [2] turned out to be 0.506 µM. Moreover, in data set [3], the MIC stood at 300 µM. This compound registered an MIC in data set [4] of 300 µM. In data set [5], this compound returned an MIC above 32.4 µM. The compound further gave an MIC in data set [6] above 32.4 µM. Also, the MIC in data set [7] is above 32.4 µM. The compound further displayed a minimum inhibitory concentration (MIC) in [8] above 32.4 µM. The compound further had a negative-log IC50 (pIC50) in [9] below 4.49. Besides, the “Hemolysis HC10” value in data set [10] was above 32.4 µM. Moreover, in data set [11], the “Dox/P.a: concentration required” value is reported as 300 µM and the Dox/P.a fold change was determined as 1 fold. For the same compound, in [12], the “Eryth/E.c: concentration required” value turned out to be 300 µM and the Eryth/E.c fold change was 1 fold.

For `O=C(NCCCNCCCCNCCCNC(=O)c1cccc2ccccc12)c1cccc2ccccc12.O=C(O)C(F)(F)F.O=C(O)C(F)(F)F` [Compound 17a, N^1,N^4-Bis(3-(1-naphthamido)propyl)butane-1,4-diaminium 2,2,2-trifluoroacetate], the melting point is 238 to 239 °C. The same compound registered an MIC in data set [1] of 677 µM. Also, the minimum inhibitory concentration (MIC) in data set [2] was above 43.3 µM. Moreover, in [3], the minimum inhibitory concentration (MIC) is 677 µM. Further, the MIC in [4] amounted to 677 µM. The compound further showed an MIC in data set [5] above 43.3 µM. In addition, in data set [6], the minimum inhibitory concentration (MIC) is above 43.3 µM. For the same compound, the MIC in data set [7] is above 43.3 µM. In data set [8], this compound yielded an MIC above 43.3 µM. Moreover, in data set [11], the “Dox/P.a: concentration required” value was 271 µM and the Dox/P.a fold change is recorded as 2.5 fold. Further, in data set [12], the “Eryth/E.c: concentration required” value is recorded as 67.7 µM and the Eryth/E.c fold change is listed as 10 fold.

As for `O=C(CCC(=O)Nc1ccc2ccccc2c1)NCCCNCCCCCCCCCCNCCCNC(=O)CCC(=O)Nc1ccc2ccccc2c1.O=C(O)C(F)(F)F.O=C(O)C(F)(F)F` [Compound 20e, N^1,N^10-Bis(3-(4-(naphthalen-2-ylamino)-4-oxobutanamido)propyl)decane-1,10-diaminium 2,2,2-trifluoroacetate], the MIC in [1] is 12.9 µM; in data set [2] it was 16.6 µM; in data set [3] it was 518 µM; in data set [4], 104 µM; in [5], above 33.2 µM; in data set [6], above 33.2 µM. The MIC in [7] is above 33.2 µM; in data set [8] it was 16.6 µM. In data set [9], this compound showed a pIC50 below 4.48. Besides, in data set [10], the “Hemolysis HC10” value is given as above 33.2 µM. Besides, the “Dox/P.a: concentration required” value in data set [11] is 104 µM. Moreover, the Dox/P.a fold change in [11] is 5 fold. Further, the “Eryth/E.c: concentration required” value in data set [12] was 13 µM and 13.0 µM. Also, in [12], the Eryth/E.c fold change worked out at 8 fold.

`O=C(NCCCNCCCCCCCNCCCNC(=O)c1cccc2ccccc12)c1cccc2ccccc12.O=C(O)C(F)(F)F.O=C(O)C(F)(F)F` [Compound 17c, N^1,N^7-Bis(3-(1-naphthamido)propyl)heptane-1,7-diaminium 2,2,2-trifluoroacetate]: the MIC was 256 µM in data set [1]; above 41 µM in data set [2]; above 256 µM in data set [3]; 256 µM in [4]; above 41 µM in data set [5]; above 41 µM in data set [6]. The MIC in [7] and in data set [8] was above 41 µM in each case. For the same compound, the negative-log IC50 (pIC50) in [9] was below 4.39. Besides, the “Hemolysis HC10” value in data set [10] is on record as above 41.0 µM. The “Dox/P.a: concentration required” value in data set [11] is 64 µM. In data set [12], the “Eryth/E.c: concentration required” value was found to be 64 µM. Also, the Eryth/E.c fold change in data set [12] is reported as 4 fold.
